Measurements taken from ChEMBL document CHEMBL1221352, “Synthesis and biological activity of flavanone derivatives” (Bioorg Med Chem Lett, 2010).

What was measured:
[1] = test system: Bel-7402; test: Antitumor activity against human Bel7402 cells; type: functional; parameters: concentration or dose not given beside the values
[2] = test system: HL-60; test: Antitumor activity against human HL60 cells; type: functional; parameters: concentration or dose not given beside the values
[3] = test system: BGC-823; test: Antitumor activity against human BGC823 cells; type: functional; parameters: concentration or dose not given beside the values
[4] = test system: KB; test: Antitumor activity against human KB cells; type: functional; parameters: concentration or dose not given beside the values
[5] = Inhibition of protein tyrosin kinase
[6] = Antivegetative activity against rat VSMC; type: functional, cell-based
[7] = test system: HUVEC; test: Cytoprotectant activity against H2O2-induced injury in HUVEC cells; type: functional, cell-based, Homo sapiens
[8] = Homo sapiens, HUVEC, read-out: EC50

In the case of Cc1c(O)c(C)c2c(c1O)C(=O)CC(c1c[nH]c3ccccc13)O2 (centres undefined), the Activity [1] is reported as 6.45%, the Activity [2] is reported as 11.39% and the Activity [3] is reported as 1.67%. The Activity [4] was 10.47%, the IC50 [5] was “Not Active” and the IC50 [6] was “Not Active”. The EC50 [7, 8] was greater than 10 µM.
In the case of Cc1c(O)c(C)c2c(c1O)C(=O)CC(c1ccc(O)cc1)O2 (centres undefined), the Activity [1] is reported as -6.53%, the Activity [2] is reported as -3.37% and the Activity [3] is reported as -23.52%. For the same molecule, the Activity [4] was -7.21%, the IC50 ([5]; read-out: IC50) was greater than 200 µM and the IC50 [6] was “Not Active”. The EC50 [7, 8] was greater than 20 µM.
With Cc1c(O)c(C)c2c(c1O)C(=O)CC(c1ccccc1O)O2 (centres undefined) the Activity [1] was -1.8%, the Activity [2] was -6.47% and the Activity [3] was -6.69%. The Activity [4] was 44.54%, the IC50 ([5]; read-out: IC50) was 55 µM and the IC50 [6] was “Not Active”. The EC50 [7, 8] was greater than 20 µM.
In the case of Cc1c(O)c(C)c2c(c1O)C(=O)CC(c1cccc(O)c1)O2 (centres undefined), the Activity [1] is reported as -5.48%, the Activity [2] is reported as -4.04% and the Activity [3] is reported as -7.6%. For the same molecule, the Activity [4] was 28.66%, the IC50 ([5]; read-out: IC50) was 51 µM and the IC50 [6] was “Not Active”. For the same molecule, the EC50 [7, 8] was greater than 20 µM.
Molecule Cc1c(O)c(C)c2c(c1O)C(=O)CC(c1ccc(Cl)cc1)O2 (centres undefined) has an Activity [1] of -7.1%, an Activity [2] of 7.65% and an Activity [3] of -22.45%. The Activity [4] was 15.89%, the IC50 [5] was “Not Active” and the IC50 [6] was “Not Active”. It also gave an EC50 [7, 8] greater than 50 µM.
Molecule Cc1c(O)c(C)c2c(c1O)C(=O)CC(c1ccccc1Cl)O2 (centres undefined) has an Activity [1] of 18.7%, an Activity [2] of 2.94% and an Activity [3] of 36.98%. It also gave an Activity [4] of 28.63%, an IC50 ([5]; read-out: IC50) greater than 50 µM and an IC50 ([6]; read-out: IC50) greater than 20 µM. It also gave an EC50 [7, 8] greater than 20 µM.
Molecule Cc1c(O)c(C)c2c(c1O)C(=O)CC(c1ccc([N+](=O)[O-])cc1)O2 (centres undefined) has an Activity [1] of 2.05%, an Activity [2] of -0.46% and an Activity [3] of -7.41%. The Activity [4] was -9.11%, the IC50 [5] was “Not Active” and the IC50 [6] was “Not Active”. It also gave an EC50 [7, 8] greater than 20 µM.
In the case of Cc1c(O)c(C)c2c(c1O)C(=O)CC(c1ccccc1[N+](=O)[O-])O2 (centres undefined), the Activity [1] is reported as 27.18%, the Activity [2] is reported as -6.16% and the Activity [3] is reported as 52%. The Activity [4] was 29.04%, the IC50 ([5]; read-out: IC50) was greater than 50 µM and the IC50 ([6]; read-out: IC50) was 9.9 µM. For the same molecule, the EC50 [7, 8] was greater than 5 µM.
COc1ccc(C2CC(=O)c3c(O)c(C)c(O)c(C)c3O2)cc1 (centres undefined) showed an Activity [1] of 15.15%, an Activity [2] of 8.52% and an Activity [3] of -28.89%. For the same molecule, the Activity [4] was -11.99%, the IC50 ([5]; read-out: IC50) was greater than 100 µM and the IC50 ([6]; read-out: IC50) was greater than 100 µM. For the same molecule, the EC50 ([7]; huvec) was “Not Active”.
With COc1ccccc1C1CC(=O)c2c(O)c(C)c(O)c(C)c2O1 (centres undefined) the IC50 ([5]; read-out: IC50) was greater than 100 µM, the IC50 [6] was “Not Active” and the EC50 [7, 8] was greater than 20 µM.
With COc1ccc(C2CC(=O)c3c(O)c(C)c(O)c(C)c3O2)c(OC)c1 (centres undefined) the IC50 [5] was “Not Active”, the IC50 [6] was “Not Active” and the EC50 ([7]; huvec) was “Not Active”.
COc1cc(O)ccc1C1CC(=O)c2c(O)c(C)c(O)c(C)c2O1 (centres undefined) showed an Activity [1] of 2.54%, an Activity [2] of -1.29% and an Activity [3] of 4.85%. For the same molecule, the Activity [4] was -18.83%, the IC50 ([5]; read-out: IC50) was greater than 200 µM and the IC50 ([6]; read-out: IC50) was greater than 100 µM. The EC50 [7, 8] was greater than 20 µM.
For Cc1c(O)c(C)c2c(c1O)C(=O)CC(c1ccco1)O2 (centres undefined), the Activity [1] was 3.27%, the Activity [2] was 12.96% and the Activity [3] was -9.68%. For the same molecule, the Activity [4] was -26.34%, the IC50 [5] was “Not Active” and the IC50 ([6]; read-out: IC50) was 6.7 µM. The EC50 [7, 8] was greater than 20 µM.
Cc1c(O)c(C)c2c(c1O)C(=O)CC(c1ccsc1)O2 (centres undefined) gave an Activity [1] of 11.59%, an Activity [2] of 10.82% and an Activity [3] of 50.71%. For the same molecule, the Activity [4] was 16.07%, the IC50 [5] was “Not Active” and the IC50 [6] was “Not Active”. The EC50 [7, 8] was greater than 50 µM.
Cc1c(O)c(C)c2c(c1O)C(=O)CC(c1ccc(O)c(O)c1)O2 (centres undefined) [CYRTOMINETIN] showed an Activity [1] of -7.68%, an Activity [2] of -4.85% and an Activity [3] of -19.81%. The Activity [4] was 45.3%, the IC50 ([5]; read-out: IC50) was greater than 50 µM and the IC50 [6] was “Not Active”. It also gave an EC50 [7, 8] greater than 20 µM.
For Cc1c(O)c(C)c2c(c1O)C(=O)C[C@@H](c1ccccc1)O2 [DEMETHOXYMATTEUCINOL], the Activity [1] was 2.63%, the Activity [3] was 13.51% and the Activity [4] was 3.64%. The IC50 ([6]; read-out: IC50) was greater than 100 µM and the EC50 ([7]; huvec) was “Not Active”.
Molecule COc1ccc2cc1Oc1ccc(cc1)C[C@H]1c3cc(c(OC)cc3CCN1C)Oc1c(OC)c(OC)cc3c1[C@H](C2)N(C)CC3 [FANCHININ] has an IC50 ([6]; read-out: IC50) of 1.48 µM.
O=c1c(-c2ccc(O)cc2)coc2cc(O)cc(O)c12 [GENISTEIN] showed an IC50 ([5]; read-out: IC50) of 13.6 µM.
